This passage reports IC50 and Activity results from ChEMBL document CHEMBL1151803, “Melanin synthesis inhibitors from Lespedeza cyrtobotrya” (J Nat Prod, 2009).

Data set [1] can be described thus: Inhibition of melanin synthesis in NHEM after 24 hrs by liquid scintillation. It counts as functional, Homo sapiens.
The nature of data set [2]: Cytotoxicity against NHEM cells assessed as cell viability 24 hrs by WST-8 assay. Type of data set: cell-based. The settings on record: human. A general note: Formazan colour is commonly taken as a measure of viable cells.

Regarding `CC1(C)C=Cc2c(ccc(C(=O)CCc3ccc(O)cc3)c2O)O1`, the IC50 (commonly the point on the concentration scale where inhibition reaches its midpoint) in data set [1] (read-out: IC50) stood at 2 µM. Besides, in data set [2], the Activity entry was “Non-toxic”. As to `Cc1c(O)cc2c(c1O)C(=O)[C@H](O)[C@@H](c1ccc(O)cc1)O2`, the IC50 result in data set [1] is on record as “Not Active”. For the same compound, the Activity result in data set [2] is listed as “Non-toxic”.

Regarding `Cc1c(O)cc2occ(-c3ccc(O)cc3)c(=O)c2c1O`, the half-inhibitory concentration (IC50) entry in data set [1] is “Not Active”. The Activity entry in data set [2] is recorded as “Non-toxic”.

Turning to `CC(C)=CCc1cc([C@@H]2CC(=O)c3ccc(O)cc3O2)ccc1O` [ABYSSINONE II], the IC50 in data set [1] (read-out: IC50) was found to be 2 µM. Moreover, in data set [2], the Activity result was “Non-toxic”. With `OC[C@H]1O[C@@H](Oc2ccc(O)cc2)[C@H](O)[C@@H](O)[C@@H]1O` [ARBUTIN], the IC50 in data set [1] (read-out: IC50) is 2.2 µM. As for `CC(C)=CCc1cc2c(cc1O)O[C@H](c1ccc(O)cc1)CC2=O` [BAVACHIN], the 50% inhibitory concentration (IC50) in data set [1] (read-out: IC50) stood at 18 µM. In data set [2], the Activity entry is listed as “Non-toxic”. The corresponding values for `COc1c(O)ccc(-c2coc3cc(O)cc(O)c3c2=O)c1OC` [BAVAISOFLAVANONE] are 38.4 µM and “Non-toxic”. Regarding `CC(C)=CCc1c(O)ccc2c1O[C@H]1c3ccc(O)c(CC=C(C)C)c3OC[C@@H]21` [ERYBRAEDIN A], in data set [1] (read-out: IC50), the IC50 amounted to 2 µM. For the same compound, in data set [2], the Activity entry is “Non-toxic”.

For the compound `CC(C)=CCc1cc2c(cc1O)OC[C@H]1c3ccc(O)c(CC=C(C)C)c3O[C@@H]21` [ERYBRAEDIN C], the IC50 in data set [1] (read-out: IC50) was determined as 5.5 µM. Also, the Activity result in data set [2] was “Non-toxic”. The corresponding values for `COc1c2c(cc3c1[C@@H]1Oc4ccc5c(c4[C@@H]1CO3)C=CC(C)(C)O5)OC(C)(C)C=C2` [GANGETININ] are 4.6 µM and “Non-toxic”. Taken in the same sequence, the figures for `O=c1c(-c2ccc(O)cc2)coc2cc(O)cc(O)c12` [GENISTEIN] were 29.2 µM and “Non-toxic”. As for `Oc1ccc(O)cc1` [HYDROQUINONE], the IC50 in data set [1] (read-out: IC50) was found to be 103 µM. In the case of `CC(C)=CCc1c(O)ccc(C(=O)/C=C/c2ccc(O)cc2)c1O` [ISOBAVACHALCONE], the IC50 in data set [1] (read-out: IC50) is 1.4 µM. Further, in data set [2], the Activity result was “Non-toxic”. Take `CC(C)=CCc1c(O)cc(O)c2c1O[C@H](c1ccc(O)cc1O)CC2=O` [LEACHIANONE G]: the IC50 entry in data set [1] was “Not Active”. In data set [2], the Activity entry was “Non-toxic”. The corresponding values for `CC(C)=CCc1c(O)ccc2c1O[C@H](c1ccc(O)cc1)[C@@H](O)C2=O` [LESPECYRTIN A1] are “Not Active” and “Non-toxic”. With `C=C(C)C1Cc2c(ccc(C(=O)/C=C/c3ccc(O)cc3)c2O)O1` (stereo not drawn) [LESPECYRTIN B1], in data set [1] (read-out: IC50), the half-inhibitory concentration (IC50) was 1.3 µM. Besides, the Activity result in data set [2] is recorded as “Non-toxic”.

Consider `CC1(C)C=Cc2c(O)ccc(C(=O)/C=C/c3ccc(O)cc3)c2O1` [LESPECYRTIN B2], for which the IC50 in data set [1] (read-out: IC50) turned out to be 1 µM. In addition, the Activity result in data set [2] was “Non-toxic”. Regarding `CC(C)(O)C1Cc2c(O)ccc(C(=O)/C=C/c3ccc(O)cc3)c2O1` (stereo not drawn) [LESPECYRTIN B3], the IC50 in data set [1] (read-out: IC50) worked out at 9.1 µM. The Activity result in data set [2] is “Non-toxic”. The corresponding values for `C=C(C)C1Cc2c(ccc(C(=O)CCc3ccc(O)cc3)c2O)O1` (stereo not drawn) [LESPECYRTIN C1] are 3 µM and “Non-toxic”. The corresponding values for `COc1cc([C@@H]2COc3cc(O)c(CC=C(C)C)cc3C2)c(O)cc1O` [LESPECYRTIN D1] are 2.1 µM and “Non-toxic”. For `CC1(C)C=Cc2cc3c(cc2O1)OC[C@H]1c2ccc4c(c2O[C@@H]31)C=CC(C)(C)O4` [LESPECYRTIN E1], the Activity result in data set [2] is “Non-toxic”. For the compound `CC(C)=CCc1c(O)c2c(c3c1[C@@H]1COc4cc5c(cc4[C@@H]1O3)C=CC(C)(C)O5)C=CC(C)(C)O2` [LESPECYRTIN E2], in data set [1] (read-out: IC50), the half-inhibitory concentration (IC50) stood at 3.7 µM. For the same compound, the Activity result in data set [2] is on record as “Non-toxic”. With `CC(C)=CCc1cc2c(cc1O)OC[C@H]1c3c4c(c(O)c(CC=C(C)C)c3O[C@@H]21)OC(C)(C)C=C4` [LESPECYRTIN E3], in data set [1] (read-out: IC50), the IC50 came to 0.4 µM. In addition, in data set [2], the Activity result is “Non-toxic”. The corresponding values for `CC(C)=CCc1c(O)c2c(c3c1O[C@H]1c4cc5c(cc4OC[C@@H]31)OC(C)(C)C=C5)C=CC(C)(C)O2` [LESPECYRTIN E4] are 4.5 µM and “Non-toxic”. `CC(C)=CCc1c(O)c(C)cc2c1O[C@H]1c3cc4c(cc3OC[C@@H]21)OC(C)(C)C=C4` [LESPECYRTIN E5]: the 50% inhibitory concentration (IC50) in data set [1] (read-out: IC50) was 1.5 µM. Besides, the Activity result in data set [2] was “Non-toxic”. Taken in the same sequence, the figures for `CC(C)=CCc1c(O)ccc2c1O[C@H]1c3cc(CCC(C)(C)O)c(O)cc3OC[C@@H]21` [LESPECYRTIN E6] were 3.4 µM and “Non-toxic”.

Regarding `COc1cc2c(cc1O)O[C@H]1c3cc4c(cc3OC[C@@H]21)OC(C)(C)[C@H](O)C4` [LESPECYRTIN E7], the IC50 in data set [1] (read-out: IC50) worked out at 16 µM. In data set [2], the Activity result is recorded as “Non-toxic”. For the compound `CC(C)=CCc1c(O)c(O)cc2c3c(oc12)-c1ccc(O)cc1OC3` [LESPECYRTIN F1], the half-inhibitory concentration (IC50) entry in data set [1] is “Not Active”. Moreover, the Activity entry in data set [2] is listed as “Non-toxic”. Regarding `CC(C)=CCc1cc2c(cc1O)OCc1c-2oc2c(CC=C(C)C)c(O)c(O)cc12` [LESPECYRTIN F2], the half-maximal inhibitory concentration (IC50) in data set [1] (read-out: IC50) came to 15.9 µM. For the same compound, in data set [2], the Activity result is “Non-toxic”. Take `CC(C)=CCc1c(O)c(O)cc2c1oc1c3ccc(O)cc3oc(=O)c21` [LESPECYRTIN G1]: the IC50 result in data set [1] was “Not Active”. For the same compound, the Activity result in data set [2] was “Non-toxic”. Regarding `CC(C)=CCC1=C(O)C(Cc2c(-c3cc(CC=C(C)C)c(O)cc3O)oc3c(CC=C(C)C)c(O)c(O)cc23)=C[C@@H]2c3c(c4cc(CC=C(C)C)c(O)cc4oc3=O)O[C@H]12` [LESPECYRTIN H1], the IC50 in data set [1] (read-out: IC50) was found to be 8.9 µM. Further, the Activity entry in data set [2] was “Non-toxic”. Turning to `CC(C)=CCC1=C(O)C(C(=O)c2c(-c3cc(CC=C(C)C)c(O)cc3O)oc3c(CC=C(C)C)c(O)c(O)cc23)=C[C@@H]2c3c(c4cc(CC=C(C)C)c(O)cc4oc3=O)O[C@H]12` [LESPECYRTIN H2], the IC50 result in data set [1] is on record as “Not Active”. Further, the Activity result in data set [2] is “Non-toxic”.

For the compound `CC(C)=CCC1=C(O)C(C(=O)c2c(-c3cc4c(cc3O)OC(C)(C)C=C4)oc3c(CC=C(C)C)c(O)c(O)cc23)=C[C@@H]2c3c(c4cc(CC=C(C)C)c(O)cc4oc3=O)O[C@H]12` [LESPECYRTIN H3], the 50% inhibitory concentration (IC50) in data set [1] (read-out: IC50) was found to be 10.1 µM. Also, the Activity entry in data set [2] is recorded as “Non-toxic”. Taken in the same sequence, the figures for `CC(C)=CCC1=C(O)C(C(=O)c2c(-c3cc(CC=C(C)C)c(O)cc3O)oc3c4c(c(O)cc23)OC(C)(C)C=C4)=C[C@@H]2c3c(c4cc(CC=C(C)C)c(O)cc4oc3=O)O[C@H]12` [LESPECYRTIN H4] were 6.2 µM and “Non-toxic”. Taken in the same sequence, the figures for `CC(C)=CCc1cc2c(cc1O)OC[C@H]1c3cc(C)c(O)c(CC=C(C)C)c3O[C@@H]21` [LESPEFLORIN G4] were 3.2 µM and “Non-toxic”. Taken in the same sequence, the figures for `CC(C)=CCc1cc2c(cc1O)oc(=O)c1c3cc(O)c(O)c(CC=C(C)C)c3oc21` [LESPEFLORIN I2] were 25.7 µM and “Non-toxic”. `CC(C)=CCc1cc(-c2oc3c(CC=C(C)C)c(O)c(O)cc3c2C(=O)c2cc3c(c(CC=C(C)C)c2O)O[C@H]2c4cc(CC=C(C)C)c(O)cc4OC[C@@H]32)c(O)cc1O` [LESPEFLORIN J3]: the Activity entry in data set [2] was “Non-toxic”. For the compound `CC(C)=CCCC1(C)C=Cc2c(ccc(C(=O)/C=C/c3ccc(O)cc3)c2O)O1` (stereo not drawn) [LESPEOL], in data set [1] (read-out: IC50), the half-inhibitory concentration (IC50) amounted to 2.4 µM. Besides, in data set [2], the Activity result was “Non-toxic”. Taken in the same sequence, the figures for `CC(C)=CCc1cc(/C=C/C(=O)c2ccc(O)cc2O)ccc1O` [LICOAGROCHALCONE A] were 3.2 µM and “Non-toxic”.

In the case of `O=C1C[C@@H](c2ccc(O)cc2)Oc2cc(O)ccc21` [LIQUIRTIGENIN], the IC50 in data set [1] (read-out: IC50) turned out to be 14.7 µM. In addition, the Activity result in data set [2] is listed as “Non-toxic”.

Regarding `O=C1C[C@@H](c2ccc(O)cc2)Oc2cc(O)cc(O)c21` [NARINGENIN], the IC50 in data set [1] (read-out: IC50) was determined as 73.5 µM. Further, the Activity result in data set [2] is on record as “Non-toxic”. The corresponding values for `CC(C)=CCc1cc(-c2coc3cc(O)ccc3c2=O)ccc1O` [NEOBAVAISOFLAVONE] are 9.4 µM and “Non-toxic”. The corresponding values for `CC1(C)C=Cc2c(ccc3c2O[C@H]2c4ccc(O)cc4OC[C@@H]32)O1` [PHASEOLIN] are 7.5 µM and “Non-toxic”. The corresponding values for `CC(C)=CCc1c(O)ccc2c1O[C@H]1c3ccc(O)cc3OC[C@@H]21` [PHASEOLLIDIN] are 8.7 µM and “Non-toxic”. In the case of `CC(C)=CCc1c(O)cc2occ(-c3ccc(O)cc3O)c(=O)c2c1O` [UNCINANONE A], the 50% inhibitory concentration (IC50) in data set [1] (read-out: IC50) was found to be 5.4 µM. In addition, the Activity result in data set [2] is “Non-toxic”.

In the case of `CC(C)=CCC/C(C)=C/Cc1c(O)ccc(C(=O)/C=C/c2ccc(O)cc2)c1O` [XANTHOANGELOL], the 50% inhibitory concentration (IC50) in data set [1] (read-out: IC50) came to 0.98 µM. In addition, the Activity result in data set [2] is given as “Non-toxic”.
